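Values below derive from 48-hour exposures of cells grown in 96-well plates, with endpoints linearly interpolated between the two concentrations bracketing the appropriate inhibition level. GI50: concentration for 50% inhibition of growth.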 The source made the active and inactive calls. No stated cut-off is given here; in the data, active = GI50 up to about 1.1 µM and inactive = higher. Square brackets hold non-standard residues; d marks the D form. Peptide text beside a SMILES is read from it. * marks the point of attachment. ξ: configuration not given here. ξF = NC(Cc1ccccc1)C(=O)O; Cbz = O=C(OCc1ccccc1)*; Aib = CC(C)(N)C(=O)O
Experiments:
Assay in all cases: NCI tumour cell line growth inhibition, 48 h
COLO 205 = system: COLO 205
DU-145 = system: DU-145
HT-29 = system: HT-29
K562 = system: K562
KM12 = system: KM12
MCF7 = system: MCF7
MDA-N = system: MDA-N
NCI-H23 = system: NCI-H23
NCI-H460 = system: NCI-H460
NCI-H522 = system: NCI-H522
OVCAR-3 = system: OVCAR-3
RXF 393 = system: RXF 393
SF-268 = system: SF-268
SK-MEL-5 = system: SK-MEL-5
SN12C = system: SN12C
SNB-19 = system: SNB-19
U-251 = system: U-251
HL-60 = system: HL-60
RPMI-8226 = system: RPMI-8226
SF-539 = system: SF-539

| Compound | GI50 (COLO 205) | GI50 (DU-145) | GI50 (HT-29) | GI50 (K562) | GI50 (KM12) | GI50 (MCF7) | GI50 (MDA-N) | GI50 (NCI-H23) | GI50 (NCI-H460) | GI50 (NCI-H522) | GI50 (OVCAR-3) | GI50 (RXF 393) | GI50 (SF-268) | GI50 (SK-MEL-5) | GI50 (SN12C) | GI50 (SNB-19) | GI50 (U-251) | GI50 (HL-60) | GI50 (RPMI-8226) | GI50 (SF-539) |
| --- | --- | --- | --- | --- | --- | --- | --- | --- | --- | --- | --- | --- | --- | --- | --- | --- | --- | --- | --- | --- |
| CN(C)CCCn1c(Cc2ccccc2)nc2cc(C(F)(F)F)ccc21 | 16.1 µM (inactive) | 67.5 µM (inactive) | 20.7 µM (inactive) | 18.5 µM (inactive) | 15.7 µM (inactive) | 20.5 µM (inactive) | 18.3 µM (inactive) | 29.5 µM (inactive) | 19.6 µM (inactive) | 24.4 µM (inactive) | 27.9 µM (inactive) | 21.2 µM (inactive) | 53.8 µM (inactive) | 17.3 µM (inactive) | 41.6 µM (inactive) | 24.1 µM (inactive) | 20 µM (inactive) | – | – | – |
| COC(=O)CCc1ccc2c(c1)CCC2 | > 100 µM (inactive) | > 100 µM (inactive) | > 100 µM (inactive) | – | > 100 µM (inactive) | > 100 µM (inactive) | > 100 µM (inactive) | > 100 µM (inactive) | > 100 µM (inactive) | > 100 µM (inactive) | > 100 µM (inactive) | – | > 100 µM (inactive) | > 100 µM (inactive) | > 100 µM (inactive) | > 100 µM (inactive) | > 100 µM (inactive) | > 100 µM (inactive) | > 100 µM (inactive) | > 100 µM (inactive) |
| O=C1CSC(c2ccc(Cl)cc2)N1c1ccc(-n2c(-c3ccccc3)nc3ccccc3c2=O)cc1 (stereo not drawn) | > 100 µM (inactive) | > 10 µM (inactive) | 84.7 µM (inactive) | 36.8 µM (inactive) | 24.4 µM (inactive) | 30.8 µM (inactive) | > 100 µM (inactive) | > 100 µM (inactive) | 36.5 µM (inactive) | 25.9 µM (inactive) | > 100 µM (inactive) | – | 88.1 µM (inactive) | 54.7 µM (inactive) | > 100 µM (inactive) | > 100 µM (inactive) | 88.5 µM (inactive) | – | > 100 µM (inactive) | > 100 µM (inactive) |
| COc1cc2c(cc1OC)C1C=NC(C2)c2cc(OC)c(OC)cc21 (stereo not drawn) | 89.7 µM (inactive) | > 100 µM (inactive) | > 100 µM (inactive) | 54.2 µM (inactive) | > 100 µM (inactive) | 60.1 µM (inactive) | > 100 µM (inactive) | – | > 100 µM (inactive) | 46.3 µM (inactive) | > 100 µM (inactive) | – | > 100 µM (inactive) | 40.5 µM (inactive) | > 100 µM (inactive) | > 100 µM (inactive) | > 100 µM (inactive) | 50.7 µM (inactive) | 60.3 µM (inactive) | > 100 µM (inactive) |
| CC(=O)OI1NC(=O)c2ccccc21 | > 100 µM (inactive) | > 100 µM (inactive) | > 100 µM (inactive) | > 100 µM (inactive) | > 100 µM (inactive) | 93.5 µM (inactive) | > 100 µM (inactive) | > 100 µM (inactive) | – | 80.2 µM (inactive) | > 100 µM (inactive) | – | > 100 µM (inactive) | > 100 µM (inactive) | > 100 µM (inactive) | > 100 µM (inactive) | > 100 µM (inactive) | > 100 µM (inactive) | > 100 µM (inactive) | – |
| CCOC(=O)C(Cl)(Cl)/S(=N\S(=O)(=O)c1ccccc1)NC(=O)c1ccccc1 (stereo not drawn) | > 100 µM (inactive) | > 100 µM (inactive) | > 100 µM (inactive) | > 100 µM (inactive) | > 100 µM (inactive) | > 100 µM (inactive) | > 100 µM (inactive) | > 100 µM (inactive) | > 100 µM (inactive) | – | > 100 µM (inactive) | > 100 µM (inactive) | > 100 µM (inactive) | > 100 µM (inactive) | > 100 µM (inactive) | > 100 µM (inactive) | > 100 µM (inactive) | 0.65 µM (active) | > 100 µM (inactive) | > 100 µM (inactive) |
| CC(C)CCCC(C)[C@H]1CC[C@H]2N/C(=N/c3ccccc3)CCC[C@]12C (stereo partly drawn) | 1.3 µM (inactive) | 6.52 µM (inactive) | 0.501 µM (active) | 1.33 µM (inactive) | 2.43 µM (inactive) | 1.79 µM (inactive) | 3.03 µM (inactive) | 1.72 µM (inactive) | 1.93 µM (inactive) | – | 2.29 µM (inactive) | 1.42 µM (inactive) | 2.06 µM (inactive) | 1.27 µM (inactive) | 1.77 µM (inactive) | 2.89 µM (inactive) | 1.82 µM (inactive) | 1.85 µM (inactive) | 1.65 µM (inactive) | 1.61 µM (inactive) |
| Nc1ccc(C(=O)c2cn(CCN3CCOCC3)c3ccccc23)c2ccccc12 | 24.8 µM (inactive) | 63 µM (inactive) | 22.5 µM (inactive) | 17.3 µM (inactive) | 31.1 µM (inactive) | 34 µM (inactive) | 32.5 µM (inactive) | 23.8 µM (inactive) | 34.3 µM (inactive) | 21 µM (inactive) | 32.6 µM (inactive) | – | 32.6 µM (inactive) | 20.7 µM (inactive) | – | 75 µM (inactive) | 55.6 µM (inactive) | 15.4 µM (inactive) | 26.5 µM (inactive) | 70.8 µM (inactive) |
| OCCCSc1ccccc1SCCCO | > 100 µM (inactive) | > 100 µM (inactive) | > 100 µM (inactive) | > 100 µM (inactive) | > 100 µM (inactive) | > 100 µM (inactive) | > 100 µM (inactive) | > 100 µM (inactive) | > 100 µM (inactive) | > 100 µM (inactive) | > 100 µM (inactive) | – | > 100 µM (inactive) | > 100 µM (inactive) | > 100 µM (inactive) | > 100 µM (inactive) | > 100 µM (inactive) | > 100 µM (inactive) | – | > 100 µM (inactive) |
| CC(C)(NC(=O)OCc1ccccc1)C(=O)NC(Cc1ccccc1)C(=O)O (stereo not drawn) (Cbz-[Aib]-[ξF]-OH) | > 100 µM (inactive) | > 100 µM (inactive) | > 100 µM (inactive) | > 100 µM (inactive) | > 100 µM (inactive) | > 100 µM (inactive) | > 100 µM (inactive) | > 100 µM (inactive) | > 100 µM (inactive) | > 100 µM (inactive) | > 100 µM (inactive) | – | – | > 100 µM (inactive) | > 100 µM (inactive) | > 100 µM (inactive) | > 100 µM (inactive) | – | > 100 µM (inactive) | > 100 µM (inactive) |
| C[C@]12CC[C@H]3[C@@H](CC[C@]4(O)C[C@@H](O)CC[C@]34C=O)[C@@]1(O)CC[C@@H]2C1=CC(=O)OC1 [STROPHANTHIDIN] | 1.36 µM (inactive) | 0.284 µM (active) | 0.406 µM (active) | 0.605 µM (active) | 1.94 µM (inactive) | – | 0.372 µM (active) | 0.265 µM (active) | 0.195 µM (active) | 0.0942 µM (active) | 0.421 µM (active) | 0.274 µM (active) | 0.397 µM (active) | 0.288 µM (active) | 0.418 µM (active) | 1.58 µM (inactive) | 0.698 µM (active) | 0.347 µM (active) | 0.506 µM (active) | 0.294 µM (active) |
